According to patent publication US10947233B2, “Crystals of azabicyclic compound” (TAIHO PHARMACEUTICAL CO., LTD., priority 2015, dated 2021):

Experiments:
[1] = Blood concentration measurement test (oral administration to mice); format: in vivo, mice (Balb/cA); settings: 50 mg/10 mL/kg; for AUC0-24 hr: mice (Balb/cA) under feeding conditions, Compound 1 in plasma, LC-MS/MS
Description: Respective solutions for administration (50 mg/10 mL/kg) of the Form I crystal and Form II crystal were produced. These solutions were administered orally to mice (Balb/cA) bred under feeding conditions at a volume of 10 mL/kg body weight using a sonde for oral administration. After the administration, the mice were returned to cages for mice to inspect their conditions. Water and feed were freely available for the mice in the cages. The mice were anesthetized with isoflurane 1, 2, 3, 4, 8 and 24 hours after the administration and 60 μL of blood was collected from their orbital sinuses using capillary blood collection tubes. The collected blood was cooled on ice and centrifuged to separate plasma.
AUCs0-24 hrwere calculated with a linear-log trapezoid method using Phoenix WinNonlin (v6.3.0), software from Pharsight, from the concentrations of Compound 1 in plasma samples measured with Multiple Reaction Monitoring method using LC-MS/MS.
Therefore, the Form II crystal according to the present invention is remarkably excellent in oral absorbability and useful as an oral pharmaceutical composition.

[2] = Solid stability test (accelerated test), related substances by HPLC; format: physicochemical
Description: The solid stability of the Form II crystal obtained in Example 1 after storage of 1, 3 and 6 months at 40° C.±2° C./75% RH±5% RH was measured under the following conditions. • Storage conditions: 40° C.±2° C./75% RH±5% RH • Measurement points: 1, 3 and 6 month • Storage amount: 6 g • Storage container: doubled plastic bags, banding bands+plastic drums • Preparation method of sample solution: 100 mg of the Form II crystal is accurately measured, a mixed solution of acetonitrile-water (4:1) is added to dissolve the crystal (sonicated to dissolve, if difficult to dissolve), and the solution is diluted in measuring cylinder to exact 200 mL total. 10 mL of this solution is accurately measured, and a mixed solution of acetonitrile-water (1:1) is added to exact 20 mL to be used as a sample solution.
HPLC was performed in the following conditions. • Column: general foundation Chemicals Evaluation and Research Institute, Japan L-column2 ODS • Particle size: 3 μm, Inner diameter: 4.6 mm, Length: 15 cm • Measurement wavelength: 220 nm • Mobile phase: Mobile phase A: 10 mmol/L phosphate buffer (pH6.9), • Mobile phase B: acetonitrile • Flow rate: about 1.0 mL/min
The concentration gradient is controlled by changing the mixing ratio of mobile phases A and B as follows, when feeding the liquid.
The amounts of related substances in the sample solutions were measured and evaluated by HPLC, of which result is shown in Table 3.
The related substances are defined as substances detected other than 3-ethyl-4-{3-isopropyl-4-(4-(1-methyl-1H-pyrazol-4-yl)-1H-imidazol-1-yl)-1H-pyrazolo[3,4-b]pyridin-1-yl}benzamide.

AUC0-24 hr of the Form II crystal relative to the Form I crystal ([1]; mice (Balb/cA)) | AUC0-24 hr [1] | Related substances ([2]; storage 1 month at 40° C.±2° C./75% RH±5% RH) | Related substances ([2]; storage 3 months at 40° C.±2° C./75% RH±5% RH) | Related substances ([2]; storage 6 months at 40° C.±2° C./75% RH±5% RH) | SMILES
approximately 3 times | 171.33 µM·h | less than 0.1% | less than 0.1% | less than 0.1% | CCc1cc(C(N)=O)ccc1-n1nc(C(C)C)c2c(-n3cnc(-c4cnn(C)c4)c3)ccnc21 [Form II crystal, 3-ethyl-4-{3-isopropyl-4-(4-(1-methyl-1H-pyrazol-4-yl)-1H-imidazol-1-yl)-1H-pyrazolo[3,4-b]pyridin-1-yl}benzamide]
 | 59.64 µM·h |  |  |  | CCc1cc(C(N)=O)ccc1-n1nc(C(C)C)c2c(-n3cnc(-c4cnn(C)c4)c3)ccnc21 [Form I crystal, 3-ethyl-4-{3-isopropyl-4-(4-(1-methyl-1H-pyrazol-4-yl)-1H-imidazol-1-yl)-1H-pyrazolo[3,4-b]pyridin-1-yl}benzamide]
